Measured values published in patent US10471025B2, “Compositions for use in treating parkinson's disease and related disorders” (Technophage, Investigação E Desenvolvimento Em …, priority 2015, dated 2019).
“And” between values parts separate entries of the source, which are not always exact repeats. Equal values may be shown once. “Also recorded” adds a separate entry of the source. Where a name gives a salt, the structure may show the parent alone. Read-outs that look alike come from different tables or passages of the source.

Key:
6-OHDA mouse model [1] = assay: Cylinder test, 6-OHDA mice (Example 5); format: in vivo
[2] = chronic dosing; cited from earlier work
6-OHDA mouse model [3] = assay: Abnormal involuntary movements, 6-OHDA mice (Example 5); format: in vivo; details: 28 days post injection; 30 and 90 minutes after treatment
Description: This condition results in a range of involuntary movements that can be evaluated by video tracking analyses. […] Evaluations were performed during two independent trials, 30 and 90 minutes after treatment administration. […] Nonetheless, forelimb and orofacial involuntary movements are extremely hard to detect, and reading errors occur, considering the size of the animals. Total abnormal involuntary movements are the sum of all 4 different involuntary movements evaluated and is the parameter often reported in the literature.
As FIGS. 17A-17F show, abnormal involuntary movements were evaluated using the cylinder test 28 days post injection. […] Values mean ě SEM (n=5-8).

healthy wild type mice [4] = assay: Toxicity assay, welfare and necropsy (Example 6); details: 24 h
Description: Their behavior was evaluated with open field tests for 1 h after i.p. injection. After 24 h, animals were sacrificed and necropsy was performed
9 week old NMRI female mice were used for this assay. Animals were tested for their welfare after two intraperitoneal injections of the test agents using the open field test. Necropsy was done after cervical dislocation. […] Benserazide at 12 mg/kg was administered 30 minutes prior to administration of these compounds, in all groups. Saline was given to the control group.
After benserazide administration, animals were monitored in the open field for 30 minutes for habituation. […] 24 hours after administration of the compounds, the animals were sacrificed and necropsy performed.
For administration of the various agents to the animals, two 700 ? L injections were administered 30 minutes apart.

healthy wild type mice [5] = assay: Toxicity assay, open field test in healthy wild type mice (Example 6); format: in vivo, mouse; details: 1 h after i.p.; tapentadol C1 8.3 mg/kg in combination with L-Dopa 18 mg/kg
Description: Necropsy was done after cervical dislocation. […] Saline was given to the control group.

[6] = cited from earlier work
rabbit = details: oral administration; cited from earlier work
[7] = cited from earlier work; remark: listed apart in the source
[8] = cited from earlier work; for Bioavailability: 86 mg
[9] = tested on: 6-OHDA treated zebrafish larvae; assay: Freezing (duration of freezing periods, light/dark stimulus) in 6-OHDA zebrafish larvae; format: in vivo; details: tapentadol 48.5, stavudine 50, nabumetone 0.91 μM; L-Dopa treatment
Description: In the zebrafish model, the locomotor impairment was measured and related with bradykinesia in patients. Tests included evaluating ‘freezing_ in response to a light/dark stimulus. 6-OHDA induced larvae had fewer freezing episodes but spent longer periods in the frozen state. In previous studies, the duration of freezing episodes has been analyzed in PD patients. […] Nonetheless, it is an inhibitor of the neuronal dopamine transporter and since 6-OHDA needs DAT to enter the neuron and induce the disease, methylphenidate may be a false positive.
As FIGS. 9B-9C show, freezing recovery was tested using 7 candidate molecules at optimal concentrations, in an exemplary experiment with n=8 fish, and methylphenidate and amantadine at 25 ? M.

[10] = storage below 25 éC; cited from earlier work
6-OHDA mouse model [11] = assay: Rotarod test, unilateral striatal 6-OHDA mice (Example 5); format: in vivo
rat = details: cited from earlier work
[12] = tested on: 6-OHDA treated zebrafish larvae; assay: Rescue of Tyrosine hydroxylase (TH)-positive dopaminergic neurons in 6-OHDA zebrafish larvae; format: in vivo
Description: The 7 candidates also were tested in terms of rescue of dopaminergic neurons positive for Tyrosine hydroxylase (Th) in the substancia nigra pars compacta of the test animals. […] Results were normalized for healthy control values (healthy control=100% of neurons). As a control, zebrafish were treated with only the vehicle, ascorbic acid. ‘6-OHDA_ represents results in zebrafish receiving no treatment.
FIGS. 6E-6G show representative Z-projections of confocal stacks of whole-mount anti-TH immunohistochemistry in 6 days post-fertilization (dpf) of zebrafish larvae (age of the fish) control (FIG. 6E), 6-OHDA (FIG. 6F), and tapentadol treated-larvae (FIG. 6G).

[13] = cited from earlier work; remark: listed apart in the source
[14] = after a high-fat, high-calorie breakfast

CC[C@@H](c1cccc(O)c1)[C@@H](C)CN(C)C [tapentadol, tapentadol hydrochloride]
Cylinder test: recovery over the parameters analyzed (6-OHDA mouse model [1]; concentration 1 (2.8 mg/kg/day), hydrochloride, 2.8 mg/kg/day): showed a recovery; also recorded: strongest recovery | Cylinder test: recovery over the parameters analyzed (6-OHDA mouse model [1]; concentration 2 (0.9 mg/kg/day)): did not show significant recovery | Hepatic hypertrophy [2]: present in all animal species | Induction of abnormal involuntary movements (6-OHDA mouse model [3]): None of the treatments, tapentadol or stavudine of the combination, induced involuntary movements | Necropsy findings (healthy wild type mice [4]; tapentadol C1 8.3 mg/kg in combination with L-Dopa): Two of the three animals treated with tapentadol C1 concentration had a slight hyperemia in the small intestine | Necropsy findings (healthy wild type mice [4]; tapentadol C3 15 mg/kg in combination with L-Dopa): One of the three animals treated with tapentadol C3 concentration had an intestinal congestion | Open field behavior (velocity, distance, time resting/moving) (healthy wild type mice [5]): slightly different behavior in three out of the four parameters analyzed | Dose with exaggerated pharmacological effects ([6]; 52-week dog study, oral dosing): 30 mg/kg | Dose groups with QT prolongation ([6]; dogs, hydrochloride): 80 mg/kg and 120 mg/kg | LD50 (rabbit): 3,200 mg/kg | Plasma protein binding ([7]; all species tested including humans): 15-20% | Plasma protein binding ([7]; plasma): approximately 20% | Conjugated form among related compounds excreted in the urine ([8]; 100 mg radiolabelled oral dose): 69% | Drug recovered in 5 days ([8]; 100 mg radiolabelled oral dose): 99.9% | Excreted via urine ([8]; 100 mg radiolabelled oral dose): 99% | Exposure to the conjugates, of the total ([8]; 100 mg radiolabelled oral dose): approximately 64% | Other forms of metabolites among related compounds excreted in the urine ([8]; 100 mg radiolabelled oral dose): 27% | Parent drug among related compounds excreted in the urine ([8]; 100 mg radiolabelled oral dose): 3% | Total dose excreted within 24 hours ([8]; 100 mg radiolabelled oral dose): 95% | Total drug excreted in the feces ([8]; 100 mg radiolabelled oral dose): Approximately 1% | Cmax ([8]; ER): 22.5 ng/mL | Cmax ([8]; IR): 64.2 ng/mL | Tmax ([8]; IR): 1.5 h | Increase of AUC with food [8, 14]: 25% | Increase of Cmax with food [8, 14]: 16% | Elimination half-life ([8]; after oral administration): 4 h | Metabolized to N-desmethyl tapentadol ([8]; by CY P2C9 and CY P2C19): 13% | Metabolized to hydroxy tapentadol ([8]; by CY P2D6): 2% | Bioavailability ([8]; extended release (ER)): 32% | Lower mean Cmax in elderly vs young adult subjects ([8]; geriatric patients): 16% | Parent compound metabolized ([8]; humans): about 97% | Bioavailability ([8]; immediate release (IR)): 32% | Drug excreted in urine as unchanged drug ([8]; in vivo): 3% | Excretion via the kidneys (tapentadol and its metabolites) ([8]; in vivo): 99% | Total clearance ([8]; in vivo): 1530 ± 177 mL/min | Volume of distribution (Vz) ([8]; intravenous administration, hydrochloride): 540 ± 98 L | AUC ratio vs normal hepatic function ([8]; mild hepatic impairment (Child-Pugh Score 5 to 6)): 1.7 | Cmax ratio vs normal hepatic function ([8]; mild hepatic impairment): 1.4 | t1/2 ratio vs normal hepatic function ([8]; mild hepatic impairment): 1.2 | AUC ratio vs normal hepatic function ([8]; moderate hepatic impairment (Child-Pugh Score 7 to 9)): 4.2 | Cmax ratio vs normal hepatic function ([8]; moderate hepatic impairment): 2.5 | t1/2 ratio vs normal hepatic function ([8]; moderate hepatic impairment): 1.4 | Mean accumulation factor ([8]; multiple (every 6 hour) dose study, 75 to 175 mg tapentadol): 1.6 | Time of maximum serum concentrations after dosing ([8]; oral): around 1.25 hours | Mean absolute bioavailability ([8]; single-dose administration (fasting)): approximately 32% | Dose excreted as O-glucuronide ([8]; urine): 55% | Dose excreted as sulfate of tapentadol ([8]; urine): 15% | Duration of freezing periods, recovery vs 6-OHDA treated larvae [9]: not recovered | Re-test period [10]: 30 months | Rotarod: latency to fall and speed, recovery (6-OHDA mouse model [11]; C1 2.8 mg/kg/day i.p., 8 and 15 days post lesion): best recovery between groups, although not significant | Rotarod: latency to fall and speed, recovery (6-OHDA mouse model [11]; daily i.p., dosages tested (C1 and C2)): behavioral recovery over time | LD50 (rat; intravenous administration, rats): 45 mg/kg | LD50 (rat; oral administration, rat): 980 mg/kg | Neurorescue ([12]; TH+ neurons at optimal dose, p): Confirmed p < 0.055 | Neuroprotective effect / recovery of TH+ neurons ([12]; at the optimal concentration of each molecule, hydrochloride): confirmed; also recorded: recovery was observed | Absorption after oral administration ([13]; dog, mice, and rats): completely absorbed | Bioavailability ([13]; dogs and rats): low | Placenta-blood barrier crossing ([13]; in vivo): crosses the placenta-blood barrier, but to a lesser extent
